Laboratory results: patent US12077503B2, “Substituted cyclic amides and their use as herbicides” (FMC CORPORATION, priority 2015, dated 2024)

How the values were obtained:
Assay type in all cases: in vivo
[1] = system: barnyardgrass (Echinochloa crus-galli); assay: Test G Pre-Emergence Protocol; settings: Echinochloa crus-galli, pre-emergence, 312 h, evaluated after 13 days; for pest or weed control at 15.625 g/ha: 15.625 g ai/ha; for pest or weed control at 15.625 g/ha / pest or weed control at 250 g/ha: read-out: Barnyardgrass damage rating (100=total damage to plant; 0=no damage to plant); for pest or weed control at 62.5 g/ha: 62.5 g ai/ha, 100=total damage to plant, 0=no damage to plant, read-out: Barnyardgrass damage rating; for pest or weed control at 250 g/ha: 250 g ai/ha
Outline: (§1)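 Herbicidal effect was rated 13 days post-application on a scale where 100 equals total damage. Spraying took place the day after sowing, using 15.625, 62.5 or 250 g/ha of compound in a 50:50 acetone/water solution with 0.5% Tween 20.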

[2] = system: corn (Zea mays); assay: Test G Pre-Emergence Protocol; settings: Zea mays, pre-emergence, 312 h, evaluated after 13 days; for plant injury at 15.625 g/ha: 15.625 g ai/ha; for plant injury at 15.625 g/ha / plant injury at 250 g/ha: read-out: Corn damage rating (100=total damage to plant; 0=no damage to plant); for plant injury at 62.5 g/ha: 62.5 g ai/ha, 100=total damage to plant, 0=no damage to plant, read-out: Corn damage rating; for plant injury at 250 g/ha: 250 g ai/ha
Outline: as §1

[3] = system: giant foxtail (Setaria faberi); assay: Test G Pre-Emergence Protocol; settings: Setaria faberi, pre-emergence, 312 h, evaluated after 13 days; for pest or weed control at 15.625 g/ha: 15.625 g ai/ha; for pest or weed control at 15.625 g/ha / pest or weed control at 250 g/ha: read-out: Foxtail, Giant damage rating (100=total damage to plant; 0=no damage to plant); for pest or weed control at 62.5 g/ha: 62.5 g ai/ha, 100=total damage to plant, 0=no damage to plant, read-out: Foxtail, Giant damage rating; for pest or weed control at 250 g/ha: 250 g ai/ha
Outline: as §1

[4] = system: ivy-leaved morning glory (Ipomoea hederacea); assay: Test G Pre-Emergence Protocol; settings: Ipomoea, pre-emergence, 312 h, evaluated after 13 days; for pest or weed control at 15.625 g/ha: 15.625 g ai/ha; for pest or weed control at 15.625 g/ha / pest or weed control at 250 g/ha: read-out: Morningglory, Ivy-leaved damage rating (100=total damage to plant; 0=no damage to plant); for pest or weed control at 62.5 g/ha: 62.5 g ai/ha, 100=total damage to plant, 0=no damage to plant, read-out: Morningglory, Ivy-leaved damage rating; for pest or weed control at 250 g/ha: 250 g ai/ha
Outline: as §1

[5] = system: redroot pigweed (Amaranthus retroflexus); assay: Test G Pre-Emergence Protocol; settings: Amaranthus retroflexus, pre-emergence, 312 h, evaluated after 13 days; for pest or weed control at 15.625 g/ha: 15.625 g ai/ha; for pest or weed control at 15.625 g/ha / pest or weed control at 250 g/ha: read-out: Pigweed, Redroot damage rating (100=total damage to plant; 0=no damage to plant); for pest or weed control at 62.5 g/ha: 62.5 g ai/ha, 100=total damage to plant, 0=no damage to plant, read-out: Pigweed, Redroot damage rating; for pest or weed control at 250 g/ha: 250 g ai/ha
Outline: as §1

[6] = system: velvetleaf (Abutilon theophrasti); assay: Test G Pre-Emergence Protocol; settings: Abutilon theophrasti, pre-emergence, 312 h, evaluated after 13 days; for pest or weed control at 15.625 g/ha: 15.625 g ai/ha; for pest or weed control at 15.625 g/ha / pest or weed control at 250 g/ha: read-out: Velvetleaf damage rating (100=total damage to plant; 0=no damage to plant); for pest or weed control at 62.5 g/ha: 62.5 g ai/ha, 100=total damage to plant, 0=no damage to plant, read-out: Velvetleaf damage rating; for pest or weed control at 250 g/ha: 250 g ai/ha
Outline: as §1

[7] = system: barnyardgrass (Echinochloa crus-galli); assay: Test G Post-Emergence Protocol; settings: Echinochloa crus-galli, post-emergence, 312 h, read-out: Barnyardgrass damage rating; for pest or weed control at 15.625 g/ha: 15.625 g ai/ha, evaluated after 13 days (100=total damage to plant; 0=no damage to plant); for pest or weed control at 62.5 g/ha: 62.5 g ai/ha; for pest or weed control at 62.5 g/ha / pest or weed control at 250 g/ha: evaluated after 13 days, 100=total damage to plant, 0=no damage to plant; for pest or weed control at 250 g/ha: 250 g ai/ha
Outline: (§2)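 Post-emergence herbicidal damage, scored visually 0–100 at 13 days. Application at 15.625, 62.5 or 250 g/ha onto 8-day-old plants grown under glasshouse control.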

[8] = system: corn (Zea mays); assay: Test G Post-Emergence Protocol; settings: Zea mays, post-emergence, 312 h, read-out: Corn damage rating; for plant injury at 15.625 g/ha: 15.625 g ai/ha, evaluated after 13 days (100=total damage to plant; 0=no damage to plant); for plant injury at 62.5 g/ha: 62.5 g ai/ha; for plant injury at 62.5 g/ha / plant injury at 250 g/ha: evaluated after 13 days, 100=total damage to plant, 0=no damage to plant; for plant injury at 250 g/ha: 250 g ai/ha
Outline: as §2

[9] = system: giant foxtail (Setaria faberi); assay: Test G Post-Emergence Protocol; settings: Setaria faberi, post-emergence, 312 h, read-out: Foxtail, Giant damage rating; for pest or weed control at 15.625 g/ha: 15.625 g ai/ha, evaluated after 13 days (100=total damage to plant; 0=no damage to plant); for pest or weed control at 62.5 g/ha: 62.5 g ai/ha; for pest or weed control at 62.5 g/ha / pest or weed control at 250 g/ha: evaluated after 13 days, 100=total damage to plant, 0=no damage to plant; for pest or weed control at 250 g/ha: 250 g ai/ha
Outline: as §2

[10] = system: ivy-leaved morning glory (Ipomoea hederacea); assay: Test G Post-Emergence Protocol; settings: Ipomoea, post-emergence, 312 h, read-out: Morningglory, Ivy-leaved damage rating; for pest or weed control at 15.625 g/ha: 15.625 g ai/ha, evaluated after 13 days (100=total damage to plant; 0=no damage to plant); for pest or weed control at 62.5 g/ha: 62.5 g ai/ha; for pest or weed control at 62.5 g/ha / pest or weed control at 250 g/ha: evaluated after 13 days, 100=total damage to plant, 0=no damage to plant; for pest or weed control at 250 g/ha: 250 g ai/ha
Outline: as §2

[11] = system: redroot pigweed (Amaranthus retroflexus); assay: Test G Post-Emergence Protocol; settings: Amaranthus retroflexus, post-emergence, 312 h, read-out: Pigweed, Redroot damage rating; for pest or weed control at 15.625 g/ha: 15.625 g ai/ha, evaluated after 13 days (100=total damage to plant; 0=no damage to plant); for pest or weed control at 62.5 g/ha: 62.5 g ai/ha; for pest or weed control at 62.5 g/ha / pest or weed control at 250 g/ha: evaluated after 13 days, 100=total damage to plant, 0=no damage to plant; for pest or weed control at 250 g/ha: 250 g ai/ha
Outline: as §2

[12] = system: velvetleaf (Abutilon theophrasti); assay: Test G Post-Emergence Protocol; settings: Abutilon theophrasti, post-emergence, 312 h, read-out: Velvetleaf damage rating; for pest or weed control at 15.625 g/ha: 15.625 g ai/ha, evaluated after 13 days (100=total damage to plant; 0=no damage to plant); for pest or weed control at 62.5 g/ha: 62.5 g ai/ha; for pest or weed control at 62.5 g/ha / pest or weed control at 250 g/ha: evaluated after 13 days, 100=total damage to plant, 0=no damage to plant; for pest or weed control at 250 g/ha: 250 g ai/ha
Outline: as §2

Row | Compound | pest or weed control at 15.625 g/ha [1] | pest or weed control at 62.5 g/ha [1] | pest or weed control at 250 g/ha [1] | plant injury at 15.625 g/ha [2] | plant injury at 62.5 g/ha [2] | plant injury at 250 g/ha [2] | pest or weed control at 15.625 g/ha [3] | pest or weed control at 62.5 g/ha [3] | pest or weed control at 250 g/ha [3] | pest or weed control at 15.625 g/ha [4] | pest or weed control at 62.5 g/ha [4] | pest or weed control at 250 g/ha [4] | pest or weed control at 15.625 g/ha [5] | pest or weed control at 62.5 g/ha [5] | pest or weed control at 250 g/ha [5] | pest or weed control at 15.625 g/ha [6] | pest or weed control at 62.5 g/ha [6] | pest or weed control at 250 g/ha [6] | pest or weed control at 15.625 g/ha [7] | pest or weed control at 62.5 g/ha [7] | further results
1 | CN1C[C@H](c2cccc(C(F)(F)F)c2)[C@@H](C(=O)Nc2ccc3cccnc3n2)C1=O (racemic) [Compound 1676] | 0% | 0% | 0% | 0% | 0% | 0% | 0% | 0% | 0% | 0% | 0% | 0% | 0% | 0% | 0% | 0% | 0% | 0% | 0% | 0% | pest or weed control at 250 g/ha [7]: 0%; plant injury at 15.625 g/ha [8]: 0%; plant injury at 62.5 g/ha [8]: 0%; plant injury at 250 g/ha [8]: 0%; pest or weed control at 15.625 g/ha [9]: 0%; pest or weed control at 62.5 g/ha [9]: 0%; pest or weed control at 250 g/ha [9]: 0%; pest or weed control at 15.625 g/ha [10]: 0%; pest or weed control at 62.5 g/ha [10]: 0%; pest or weed control at 250 g/ha [10]: 0%; pest or weed control at 15.625 g/ha [11]: 0%; pest or weed control at 62.5 g/ha [11]: 0%; pest or weed control at 250 g/ha [11]: 0%; pest or weed control at 15.625 g/ha [12]: 0%; pest or weed control at 62.5 g/ha [12]: 0%; pest or weed control at 250 g/ha [12]: 0%
2 | CN1C[C@H](c2ccc(C(F)(F)F)cc2)[C@@H](C(=O)Nc2cccc(F)c2S(C)(=O)=O)C1=O (racemic) [Compound 1680] | 0% | 20% | 60% | 0% | 0% | 0% | 20% | 60% | 90% | 0% | 0% | 0% | 20% | 20% | 70% | 10% | 10% | 90% | 20% | 20% | pest or weed control at 250 g/ha [7]: 50%; plant injury at 15.625 g/ha [8]: 0%; plant injury at 62.5 g/ha [8]: 0%; plant injury at 250 g/ha [8]: 0%; pest or weed control at 15.625 g/ha [9]: 30%; pest or weed control at 62.5 g/ha [9]: 80%; pest or weed control at 250 g/ha [9]: 80%; pest or weed control at 15.625 g/ha [10]: 10%; pest or weed control at 62.5 g/ha [10]: 10%; pest or weed control at 250 g/ha [10]: 20%; pest or weed control at 15.625 g/ha [11]: 50%; pest or weed control at 62.5 g/ha [11]: 60%; pest or weed control at 250 g/ha [11]: 60%; pest or weed control at 15.625 g/ha [12]: 0%; pest or weed control at 62.5 g/ha [12]: 10%; pest or weed control at 250 g/ha [12]: 0%
3 | CCOc1cc(C2CN(C)C(=O)C2C(=O)Nc2cccc(F)c2F)ccc1Cl (stereo not drawn) [Compound 1686] | 40% | 70% | 70% | 10% | 20% | 50% | 60% | 70% | 90% | 0% | 20% | 60% | 0% | 0% | 60% | 0% | 0% | 40% | 30% | 70% | pest or weed control at 250 g/ha [7]: 80%; plant injury at 15.625 g/ha [8]: 0%; plant injury at 62.5 g/ha [8]: 10%; plant injury at 250 g/ha [8]: 60%; pest or weed control at 15.625 g/ha [9]: 60%; pest or weed control at 62.5 g/ha [9]: 70%; pest or weed control at 250 g/ha [9]: 80%; pest or weed control at 15.625 g/ha [10]: 20%; pest or weed control at 62.5 g/ha [10]: 20%; pest or weed control at 250 g/ha [10]: 70%; pest or weed control at 15.625 g/ha [11]: 30%; pest or weed control at 62.5 g/ha [11]: 20%; pest or weed control at 250 g/ha [11]: 40%; pest or weed control at 15.625 g/ha [12]: 30%; pest or weed control at 62.5 g/ha [12]: 20%; pest or weed control at 250 g/ha [12]: 40%
